Laboratory results: patent US9074014B2 (Ipsen Pharma S.A.S., priority 2008, dated 2015)
Where a SMILES comes first, the peptide text is derived from it. Where no end group is shown, it is not given here. [ ]: non-standard residue; d: D form. Ac6c = NC1(C(=O)O)CCCCC1; Nle = CCCC[C@H](N)C(=O)O; Ac5c = NC1(C(=O)O)CCCC1; Aib = CC(C)(N)C(=O)O

Experiments:
[1] = biological target: T1, human recombinant GIP receptor (Homo sapiens, UniProt P48546); assay: In vitro hGIP receptor binding assay ([125I]GIP displacement, CHO-K1 membranes)
T1 construct: expressed in transfected cells; host or cells: CHO-K1 clonal cells (membranes)
T1 sequence (P48546 22-466): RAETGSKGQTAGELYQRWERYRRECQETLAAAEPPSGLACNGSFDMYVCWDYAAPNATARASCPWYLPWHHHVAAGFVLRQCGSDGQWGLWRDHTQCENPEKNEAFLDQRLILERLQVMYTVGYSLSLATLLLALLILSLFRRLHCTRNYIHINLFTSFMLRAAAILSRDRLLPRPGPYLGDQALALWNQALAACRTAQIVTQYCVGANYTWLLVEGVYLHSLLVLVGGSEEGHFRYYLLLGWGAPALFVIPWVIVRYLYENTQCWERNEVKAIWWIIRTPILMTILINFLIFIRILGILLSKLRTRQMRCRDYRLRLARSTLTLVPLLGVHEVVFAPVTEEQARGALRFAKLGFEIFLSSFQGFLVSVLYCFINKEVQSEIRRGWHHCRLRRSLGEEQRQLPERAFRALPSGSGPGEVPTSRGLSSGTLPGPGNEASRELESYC
From the text: A. In Vitro hGIP Receptor Binding Assay

[2] = Rat plasma half-life assay; format: in vitro ADME; conditions: rat plasma, 37° C., LC-MS; read-out: Rat Plasma T½ (converted)
[3] = Human plasma half-life assay; format: in vitro ADME; conditions: human plasma, 37° C., LC-MS; read-out: Human Plasma T½ (converted)

For `CC[C@H](C)[C@H](NC(=O)[C@H](CCCCN)NC(=O)[C@H](CC(=O)O)NC(=O)[C@H](CCSC)NC(=O)[C@H](C)NC(=O)[C@@H](NC(=O)C1(NC(=O)[C@H](Cc2ccc(O)cc2)NC(=O)[C@H](CC(=O)O)NC(=O)[C@H](CO)NC(=O)[C@@H](NC(=O)[C@H](Cc2ccccc2)NC(=O)[C@@H](NC(=O)CNC(=O)[C@H](CCC(=O)O)NC(=O)[C@@H](C)NC(=O)[C@@H](N)Cc2ccc(O)cc2)[C@@H](C)O)[C@@H](C)CC)CCCC1)[C@@H](C)CC)C(=O)N[C@@H](Cc1c[nH]cn1)C(=O)N[C@@H](CCC(N)=O)C(=O)N[C@@H](CCC(N)=O)C(=O)N[C@@H](CC(=O)O)C(=O)N[C@@H](Cc1ccccc1)C(=O)N[C@H](C(=O)N[C@@H](CC(N)=O)C(=O)N[C@@H](Cc1c[nH]c2ccccc12)C(=O)N[C@@H](CC(C)C)C(=O)N[C@@H](CC(C)C)C(=O)N[C@@H](C)C(=O)N[C@@H](CCC(N)=O)C(=O)N[C@@H](CCCCN)C(=O)N[C@@H](Cc1c[nH]cn1)C(N)=O)C(C)C` [Example 122, (D-Ala^2, A5c^11, His^31)hGIP(1-31)-NH2] (H-Y[dA]EGTFISDY[Ac5c]IAMDKIHQQDFVNWLLAQKH-NH2; N-terminus assumed), which Ki [1] is on record?
Its Ki is 0.87 nM.

With `CCCC[C@H](NC(=O)[C@H](C)NC(=O)[C@@H](NC(=O)C1(NC(=O)[C@H](Cc2ccc(O)cc2)NC(=O)[C@H](CC(=O)O)NC(=O)[C@H](CO)NC(=O)[C@@H](NC(=O)[C@H](Cc2ccccc2)NC(=O)[C@@H](NC(=O)CNC(=O)[C@@H]2CCCN2C(=O)[C@H](C)NC(=O)[C@@H](N)Cc2ccc(O)cc2)[C@@H](C)O)[C@@H](C)CC)CCCC1)[C@@H](C)CC)C(=O)N[C@@H](CC(=O)O)C(=O)N[C@@H](CCCCN)C(=O)N[C@H](C(=O)N[C@@H](Cc1c[nH]cn1)C(=O)N[C@@H](CCC(N)=O)C(=O)N[C@@H](CCC(N)=O)C(=O)N[C@@H](CC(=O)O)C(=O)N[C@@H](Cc1ccccc1)C(=O)N[C@H](C(=O)N[C@@H](CC(N)=O)C(=O)N[C@@H](Cc1c[nH]c2ccccc12)C(=O)N[C@@H](CC(C)C)C(=O)N[C@@H](CC(C)C)C(=O)N[C@@H](C)C(=O)N[C@@H](CCC(N)=O)C(=O)N[C@@H](CCCCN)C(=O)O)C(C)C)[C@@H](C)CC` [Example 92, (Pro^3, A5c^11, Nle^14)hGIP(1-30)-OH] (H-YAPGTFISDY[Ac5c]IA[Nle]DKIHQQDFVNWLLAQK-OH; N-terminus and C-terminus assumed) as the compound, how does the Ki [1] read?
The Ki was 86.8 nM.

And the half-life at 0.1 mg/ml [2]?
The half-life at 0.1 mg/ml was 1.6 h.

And the half-life at 0.1 mg/ml [3]?
The half-life at 0.1 mg/ml was 12 h.

With “Y[Aib]EGTF[Ac6c]SDYSIAMDKIHQQDFVNWLLAQKGKKNDWKHNI[Aib]Q-OH [Example 23, (Aib^2, 41, A6c^7)hGIP(1-42)-OH]” as the compound, how does the Ki [1] read?
The Ki was 0.87 nM.

And the half-life at 0.1 mg/ml [2]?
Its half-life at 0.1 mg/ml is 6.7 h.

What about the half-life at 0.1 mg/ml [3] of the same compound?
Its half-life at 0.1 mg/ml is greater than 48 h.

Which results are given for `CC[C@H](C)[C@H](NC(=O)[C@H](CCCCN)NC(=O)[C@H](CC(=O)O)NC(=O)C1(NC(=O)[C@H](C)NC(=O)[C@@H](NC(=O)C(C)(C)NC(=O)[C@H](Cc2ccc(O)cc2)NC(=O)[C@H](CC(=O)O)NC(=O)[C@H](CO)NC(=O)[C@@H](NC(=O)[C@H](Cc2ccccc2)NC(=O)[C@@H](NC(=O)CNC(=O)[C@H](CCC(=O)O)NC(=O)C(C)(C)NC(=O)[C@@H](N)Cc2ccc(O)cc2)[C@@H](C)O)[C@@H](C)CC)[C@@H](C)CC)CCCCC1)C(=O)N[C@@H](Cc1c[nH]cn1)C(=O)N[C@@H](CCC(N)=O)C(=O)N[C@@H](CCC(N)=O)C(=O)N[C@@H](CC(=O)O)C(=O)N[C@@H](Cc1ccccc1)C(=O)N[C@H](C(=O)N[C@@H](CC(N)=O)C(=O)N[C@@H](Cc1c[nH]c2ccccc12)C(=O)N[C@@H](CC(C)C)C(=O)N[C@@H](CC(C)C)C(=O)N[C@@H](C)C(=O)N[C@@H](CCC(N)=O)C(=O)N[C@@H](CCCCN)C(N)=O)C(C)C` [Example 38, (Aib^2, 11, A6c^14)hGIP(1-30)-NH2] (H-Y[Aib]EGTFISDY[Aib]IA[Ac6c]DKIHQQDFVNWLLAQK-NH2; N-terminus assumed)?
Ki [1]: 0.73 nM; half-life at 0.1 mg/ml [2]: > 54 h; half-life at 0.1 mg/ml [3]: 49.1 h

For `CCCC[C@H](NC(=O)C(C)(C)NC(=O)[C@@H](NC(=O)[C@H](CO)NC(=O)[C@H](Cc1ccc(O)cc1)NC(=O)[C@H](CC(=O)O)NC(=O)[C@H](CO)NC(=O)[C@@H](NC(=O)[C@H](Cc1ccccc1)NC(=O)[C@@H](NC(=O)CNC(=O)[C@H](CCC(=O)O)NC(=O)C(C)(C)NC(=O)[C@@H](N)Cc1ccc(O)cc1)[C@@H](C)O)[C@@H](C)CC)[C@@H](C)CC)C(=O)N[C@@H](CC(=O)O)C(=O)N[C@@H](CCCCN)C(=O)N[C@H](C(=O)N[C@@H](Cc1c[nH]cn1)C(=O)N[C@@H](CCC(N)=O)C(=O)N[C@@H](CCC(N)=O)C(=O)N[C@@H](CC(=O)O)C(=O)N[C@@H](Cc1ccccc1)C(=O)N[C@H](C(=O)N[C@@H](CC(N)=O)C(=O)N[C@@H](Cc1c[nH]c2ccccc12)C(=O)N[C@@H](CC(C)C)C(=O)N[C@@H](CC(C)C)C(=O)N[C@@H](C)C(=O)N[C@@H](CCC(N)=O)C(=O)N[C@@H](CCCCN)C(=O)NCC(=O)N[C@@H](CCCCN)C(=O)N[C@@H](CCCCN)C(=O)N[C@@H](CC(N)=O)C(=O)N[C@@H](CC(=O)O)C(=O)N[C@@H](Cc1c[nH]c2ccccc12)C(=O)N[C@@H](CCCCN)C(=O)N[C@@H](Cc1c[nH]cn1)C(=O)N[C@@H](CC(N)=O)C(=O)N[C@H](C(=O)N[C@H](C(=O)N[C@@H](CCC(N)=O)C(=O)O)[C@@H](C)O)[C@@H](C)CC)C(C)C)[C@@H](C)CC` [Example 57, (Aib^2, 13, Nle^14)hGIP(1-42)-OH], which Ki [1] is on record?
Its Ki is 0.05 nM.

And the half-life at 0.1 mg/ml [2]?
Its half-life at 0.1 mg/ml is 13.8 h.

What about the half-life at 0.1 mg/ml [3] of the same compound?
Its half-life at 0.1 mg/ml is 30.5 h.

For `CC[C@H](C)[C@H](NC(=O)[C@H](CCCCN)NC(=O)[C@H](CC(=O)O)NC(=O)[C@H](CCSC)NC(=O)[C@H](C)NC(=O)[C@@H](NC(=O)C1(NC(=O)[C@H](Cc2ccc(O)cc2)NC(=O)[C@H](CC(=O)O)NC(=O)[C@H](CO)NC(=O)[C@@H](NC(=O)[C@H](Cc2ccccc2)NC(=O)[C@@H](NC(=O)CNC(=O)[C@@H]2CCCN2C(=O)[C@H](C)NC(=O)[C@@H](N)Cc2ccc(O)cc2)[C@@H](C)O)[C@@H](C)CC)CCCC1)[C@@H](C)CC)C(=O)N[C@@H](Cc1c[nH]cn1)C(=O)N[C@@H](CCC(N)=O)C(=O)N[C@@H](CCC(N)=O)C(=O)N[C@@H](CC(=O)O)C(=O)N[C@@H](Cc1ccccc1)C(=O)N[C@H](C(=O)N[C@@H](CC(N)=O)C(=O)N[C@@H](Cc1c[nH]c2ccccc12)C(=O)N[C@@H](CC(C)C)C(=O)N[C@@H](CC(C)C)C(=O)N[C@@H](C)C(=O)N[C@@H](CCC(N)=O)C(=O)N[C@@H](CCCCN)C(N)=O)C(C)C` [Example 98, (Pro^3, A5c^11)hGIP(1-30)-NH2] (H-YAPGTFISDY[Ac5c]IAMDKIHQQDFVNWLLAQK-NH2; N-terminus assumed), which Ki [1] is on record?
The Ki was 65.9 nM.

What does the source list for `CCCC[C@H](NC(=O)[C@H](C)NC(=O)[C@@H](NC(=O)[C@H](CO)NC(=O)[C@H](Cc1ccc(O)cc1)NC(=O)[C@H](CC(=O)O)NC(=O)[C@H](CO)NC(=O)[C@@H](NC(=O)[C@H](Cc1ccccc1)NC(=O)[C@@H](NC(=O)CNC(=O)[C@H](CCC(=O)O)NC(=O)C1(NC(=O)[C@@H](N)Cc2ccc(O)cc2)CCCC1)[C@@H](C)O)[C@@H](C)CC)[C@@H](C)CC)C(=O)N[C@@H](CC(=O)O)C(=O)N[C@@H](CCCCN)C(=O)N[C@H](C(=O)N[C@@H](Cc1c[nH]cn1)C(=O)N[C@@H](CCC(N)=O)C(=O)N[C@@H](CCC(N)=O)C(=O)N[C@@H](CC(=O)O)C(=O)N[C@@H](Cc1ccccc1)C(=O)N[C@H](C(=O)N[C@@H](CC(N)=O)C(=O)N[C@@H](Cc1c[nH]c2ccccc12)C(=O)N[C@@H](CC(C)C)C(=O)N[C@@H](CC(C)C)C(=O)N[C@@H](C)C(=O)N[C@@H](CCC(N)=O)C(=O)N[C@@H](CCCCN)C(=O)NCC(=O)N[C@@H](CCCCN)C(=O)N[C@@H](CCCCN)C(=O)N[C@@H](CC(N)=O)C(=O)N[C@@H](CC(=O)O)C(=O)N[C@@H](Cc1c[nH]c2ccccc12)C(=O)N[C@@H](CCCCN)C(=O)N[C@@H](Cc1c[nH]cn1)C(=O)N[C@@H](CC(N)=O)C(=O)N[C@H](C(=O)N[C@H](C(=O)N[C@@H](CCC(N)=O)C(=O)O)[C@@H](C)O)[C@@H](C)CC)C(C)C)[C@@H](C)CC` [Example 40, (A5c^2, Nle^14)hGIP(1-42)-OH]?
Ki [1]: 15.9 nM; half-life at 0.1 mg/ml [2]: 4.9 h; half-life at 0.1 mg/ml [3]: 7.7 h

Which Ki [1] does the source give for “Y[Aib]EGTFISDY[Aib]IA[Ac6c]DKIHQQDFVNWLLAQKGKKNDWKHNITQ-OH [Example 41, (Aib^2, 11, A6c^14)hGIP(1-42)-OH]” here?
The Ki was 0.73 nM.

And the half-life at 0.1 mg/ml [2]?
Its half-life at 0.1 mg/ml is 13.3 h.

What about the half-life at 0.1 mg/ml [3] of the same compound?
The half-life at 0.1 mg/ml was 15.9 h.

What does the source list for `CCCC[C@H](NC(=O)C(C)(C)NC(=O)[C@@H](NC(=O)[C@H](CO)NC(=O)[C@H](Cc1ccc(O)cc1)NC(=O)[C@H](CC(=O)O)NC(=O)[C@H](CO)NC(=O)[C@@H](NC(=O)[C@H](Cc1ccccc1)NC(=O)[C@@H](NC(=O)CNC(=O)[C@@H]1CCCN1C(=O)C(C)(C)NC(=O)[C@@H](N)Cc1ccc(O)cc1)[C@@H](C)O)[C@@H](C)CC)[C@@H](C)CC)C(=O)N[C@@H](CC(=O)O)C(=O)N[C@@H](CCCCN)C(=O)N[C@H](C(=O)N[C@@H](Cc1c[nH]cn1)C(=O)N[C@@H](CCC(N)=O)C(=O)N[C@@H](CCC(N)=O)C(=O)N[C@@H](CC(=O)O)C(=O)N[C@@H](Cc1ccccc1)C(=O)N[C@H](C(=O)N[C@@H](CC(N)=O)C(=O)N[C@@H](Cc1c[nH]c2ccccc12)C(=O)N[C@@H](CC(C)C)C(=O)N[C@@H](CC(C)C)C(=O)N[C@@H](C)C(=O)N[C@@H](CCC(N)=O)C(=O)N[C@@H](CCCCN)C(N)=O)C(C)C)[C@@H](C)CC` [Example 108, (Aib^2, 13, Pro^3, Nle^14)hGIP(1-30)-NH2] (H-Y[Aib]PGTFISDYSI[Aib][Nle]DKIHQQDFVNWLLAQK-NH2; N-terminus assumed)?
Ki [1]: 0.07 nM; half-life at 0.1 mg/ml [2]: 45.6 h; half-life at 0.1 mg/ml [3]: 46.2 h
